Test results: patent US10842794B2, “Use of Sigma-1 receptor agonist compounds” (MTA TÁMOGATOTT KUTATÓCSOPORTOK IRODÁJA, priority 2014, dated 2020)

Tests used:
NRK49F cells = experiment: Cell viability MTT assay in myofibroblasts; type: cell-based, rat; settings: 24-hours treatment, commonly used doses 1-10 μM
[1] = system: NRK49F rat kidney interstitial fibroblast cell lines; experiment: PDGFB-induced myofibroblast proliferation (MTT); type: cell-based; settings: 10 ng/mL PDGFB, 24 hours, different concentrations of agonist
[2] = system: collagen I and collagen III mRNA in NRK49F cells; experiment: TGFβ-induced collagen-1 and collagen-3 production, quantitative RT-PCR; type: cell-based, rat; settings: 20 μM/L fluvoxamine
[3] = system: Streptozotocin induced type 1 diabetic rats; experiment: Rat model of streptozotocin induced diabetic nephropathy: metabolic and renal parameters; type: in vivo; settings: for Blood Creatinine / Blood Glucose / Blood Urea Nitrogen / FeNa / Fructosamine / GFR / Urinary albumin excretion: Mean±SEM
Description: All substances were purchased from Sigma-Aldrich Ltd. (Budapest, Hungary). Diabetes was induced in male Wistar rats by 65 mg/bwkg streptozotocin (STZ) i.v. (dissolved in 0.1 M citrate buffer; pH 4.5). Animals were considered diabetic if blood glucose concentrations increased to 15 mmol/L within 72 h after STZ injection and remained elevated. Animals were randomly divided into groups (n=10-12/group) and received by per os (i) fluvoxamine (20 mg/bwkg/day) for 7 weeks; (ii) fluvoxamine (20 mg/bwkg/day) for 2 weeks from the 5th week of diabetes, (iii) fluvoxamine (2 mg/bwkg/day) for 2 weeks from the 5th week of diabetes; or (iv) vehicle (isotonic saline). […] Non-diabetic age-matched control animals were injected with citrate buffer and sacrificed after 7 weeks (n=8-10/group).
Before and during and at the end of treatment period rats were placed into metabolic cages to collect 24-hour urinary samples. After 2 weeks of treatment all rats were anesthesized, blood and urinary samples were collected and the kidneys were removed, weighed and a section fixed in formalin (4%, pH=7.4) for histology and the remained immediately snap-frozen for further investigations.
Serum metabolic (glucose, fructoseamine, total and HDL-cholesterol, triglycerides) and renal functional parameters from rat serum (sodium, potassium, creatinine, BUN, GFR and proteinuria) were determined with commercially available kits on a Hitachi 912 photometric chemistry analyzer. Random urine and 24-hour urine samples were also measured. Urinary protein to creatinine ratio was also calculated.

[4] = system: Streptozotocin induced type 1 diabetic rats; experiment: Diabetic rat kidney: PAS staining, mesangial matrix expansion; type: in vivo
[5] = system: Streptozotocin induced type 1 diabetic rats; experiment: Diabetic rat kidney: fibronectin staining; type: in vivo; settings: fluvoxamine 20 mg/bwkg/day for 2 weeks from the 5th week of diabetes
[6] = system: Streptozotocin induced type 1 diabetic rats; experiment: Diabetic rat kidney: Sirius Red staining of ECM components; type: in vivo; settings: long term 7-weeks fluvoxamine treatment
[7] = system: Streptozotocin induced type 1 diabetic rats; experiment: Diabetic rat kidney: αSMA protein level, western blot; type: in vivo; settings: fluvoxamine, predominantly the dose of 20 mg
[8] = system: mice with unilateral ureter obstruction (UUO); experiment: Mice model of unilateral ureteral obstruction (UUO): Masson's trichrome, tubulointerstitial fibrosis; type: in vivo; settings: fluvoxamine 20 mg/bwkg/day for one week, 7 days after UUO
[9] = system: mice with unilateral ureter obstruction (UUO); experiment: Mice model of UUO: αSMA protein in kidney, western blot; type: in vivo; settings: one week fluvoxamine treatment 20 mg/bwkg/day
[10] = system: rat model of bleomycin-induced lung fibrosis; experiment: Rat model of bleomycin induced pulmonary fibrosis: Masson trichrome staining of lung; type: in vivo; settings: fluvoxamine 20 mg/bwkg/day per os
Description: Masson trichrome staining of tissue sections was performed Bars represent Mean±SEM, n=6/group). Specifically:
For the induction of pulmonary fibrosis male Wistar rats were anesthetized. Bleomycin (5 mg/bwkg in a 300 μl solution of isotonic saline) or 300 μl isotonic saline was administered into the trachea using a 30G needle.
Animals were randomly divided into 4 groups of 6 rats each as follows (i)—control group was sham operated, received isotonic saline per os daily for 3 weeks, (ii) vehicle treated group: received isotonic saline per os daily for 3 weeks after the induction of lung fibrosis, (iii) fluvoxamine treated group: received fluvoxamine (20 mg/bwkg/day per os for 3 weeks after the induction of lung fibrosis), (iv) fluvoxamine+NE100 treated group: received fluvoxamine (20 mg/bwkg/day; per os) and 1 mg/bwkg/day NE100 (i.p. for 3 weeks after the induction of lung fibrosis. […]
The stained sections were viewed and photographed with Pannoramic 250 Flash and Pannoramic Viewer 1.15.2 (3D HISTECH Ltd. Budapest, Hungary) Adobe Photoshop 13.0 and Scion Image for Windows software were used for the analysis. […] Finally these ratios were statistically analyzed in all of the treatment groups.

[11] = system: FN1, COL1A1 and MMP2 mRNA in HTM-5 cells; experiment: Fibrotic marker mRNA expression in HTM-5 cells (RT-PCR); type: cell-based, human; settings: normalised to RN18S
[12] = system: human trabecular meshwork-5 (HTM-5) cells; experiment: Actin cytoskeleton rearrangement in HTM-5 cells (phalloidin F-actin staining); type: cell-based; settings: 24 h, 20 ng/mL PDGF and 10 μM FLU
NRK49F myofibroblasts = settings: all applied concentrations, even the smallest 1 μM
Description: In 6-well plates of NRK49F myofibroblasts (6×10^6 cells/well) TGF-β (1 nM) induced production of fibrillar components of the extracellular matrix was measured by Sirius Red staining. To investigate the effect of S1R agonist compounds a group of cells was treated for 48 hours with the various S1R agonists. Solvent treated cells served as controls. (Bars represent mean±SEM)
To investigate the deposition of fibrillar collagen Sirius Red staining was performed. 48 hours after the treatment with TGF-β and said compounds the NRK-49F cells were incubated for 10 minutes with Kahle fixative solution. 0.1% Sirius Red (Direct Red 80, Sigma-Aldrich) in 1.2% picric acid was added for each well and plates were incubated for 30 minutes at RT. The unconnected dye molecules were washed with distilled water. The bound Sirius Red dye was eluated with 0.1 M NaOH solution, absorbance was recorded at 540 nm in a Hidex Chameleon Microplate Reader (Triathler, Plate Chameleion, 300SL Lablogic Systems, Inc., Brandon, Fla., USA) used MikroWin program. Vehicle treated cells served as controls.

[13] = D7FLU: diabetic rats, fluvoxamine 20 mg/bwkg/day per os for 7 weeks
[14] = D+FLU2: diabetic rats, fluvoxamine 2 mg/bwkg/day per os for 2 weeks from the 5th week of diabetes
[15] = D+FLU: diabetic rats, fluvoxamine 20 mg/bwkg/day per os for 2 weeks from the 5th week of diabetes

COCCCC/C(=N\OCCN)c1ccc(C(F)(F)F)cc1 [fluvoxamine, 2-{[(E)-{5-Methoxy-1-[4-(trifluoromethyl)phenyl]pentylidene}amino]oxy}ethanamine]
cytotoxicity / cell viability in myofibroblasts (NRK49F cells): not cytotoxic
PDGF-induced myofibroblast proliferation [1]: significantly decreased PDGF-induced myofibroblast proliferation
mRNA expression of collagen-1 and collagen-3 ([2]; by 24 hours): remarkably diminished
collagen production (collagen-1 and collagen-3 mRNA) ([2]; by 48 hours): returned to the level of normal controls
Blood Creatinine [3, 13]: 27.0 ± 2.24 µmol/L
Blood Glucose [3, 13]: 50.31 ± 3.7 ^ mmol/L
Blood Urea Nitrogen [3, 13]: 17.3 ± 1.49 mmol/L
FeNa [3, 13]: 0.40 ± 0.03 %
Fructosamine [3, 13]: 276 ± 11.2 µmol/L
GFR [3, 13]: 6.77 ± 1.15 mL/min/100 g
Urinary albumin excretion [3, 13]: 20.8 ± 9.51 mg/mL
Blood Creatinine [3, 14]: 31.8 ± 2.94 µmol/L
Blood Glucose [3, 14]: 26.45 ± 3.11 mmol/L
Blood Urea Nitrogen [3, 14]: 18.8 ± 1.68 mmol/L
FeNa [3, 14]: 0.62 ± 0.12 %
Fructosamine [3, 14]: 242 ± 12.8^ μmol/L
GFR [3, 14]: 4.73 ± 0.69^ mL/min/100 g
Urinary albumin excretion [3, 14]: 24.3 ± 5.77^ mg/mL
Blood Creatinine [3, 15]: 34.5 ± 2.74 µmol/L
Blood Glucose [3, 15]: 36.6 ± 2.62 mmol/L
Blood Urea Nitrogen [3, 15]: 17.3 ± 2.30 mmol/L
FeNa [3, 15]: 0.90 ± 0.23 %
Fructosamine [3, 15]: 252 ± 18.5^ μmol/L
GFR [3, 15]: 3.73 ± 0.49^ mL/min/100 g
Urinary albumin excretion [3, 15]: 21.5 ± 4.99 mg/mL
renal function in diabetic rats ([3]; fluvoxamine treatment, specifically the long-term (7-weeks) treatment): remarkably improved renal function, prevented GFR decline
extent of mesangial matrix expansion (PAS) ([4]; all doses of fluvoxamine): remarkably diminished
prevention of renal tissue damage (PAS), comparison of regimens ([4]; long-term (7-weeks) fluvoxamine treatment): most effective in preventing renal tissue damage
fibrotic lesion (fibronectin staining) versus diabetic rats [5]: smaller
diabetes induced excessive ECM accumulation (Sirius Red) [6]: significantly reduced
αSMA protein level in kidney of diabetic rats [7]: reduced αSMA protein level by the half
tubulointerstitial fibrosis after UUO (Masson's trichrome) [8]: decreased tubulointerstitial fibrosis
UUO-induced αSMA production in kidney [9]: successfully decreased UUO-induced αSMA production
fibrotic lesions of the lung after bleomycin (Masson trichrome) [10]: prevented almost totally the fibrotic effect of bleomycin
COL1A1 (collagen1a1) mRNA expression ([11]; 20 ng/ml PDGF plus 5 μM FLU): inhibit the expression of each fibrosis marker tested in a dose dependent manner
FN1 (fibronectin) mRNA expression ([11]; 20 ng/ml PDGF plus 5 μM FLU): inhibit the expression of each fibrosis marker tested in a dose dependent manner
MMP2 (matrix metalloproteinase 2) mRNA expression ([11]; 20 ng/ml PDGF plus 10 μM FLU): inhibit the expression of each fibrosis marker tested in a dose dependent manner
fibrotic rearrangement and active production of actin filaments [12]: blocked
TGFβ-induced ECM production (Sirius Red) (NRK49F myofibroblasts): significantly inhibited TGFβ-induced ECM production
